Consider 9 molecules from PMC12516686, “Design of 2‑Aminobenzothiazole Derivatives Targeting Trypanosomatid PTR1 by a Multidisciplinary Fragment Hybridization Approach” (Journal of Medicinal Chemistry, 2025).

Data set [1] has as its system Trypanosoma brucei brucei L427 wild-type (WT) bloodstream forms. The data set is described as follows: Activity against T. brucei (resazurin-based assay). Type of data set: cell-based. Particulars: at 10 μM. Here is the method:
The parasites were grown in 5 mL T25 ventilated flasks containing complete HMI-9 medium. The medium was supplemented with 10% heat-inactivated FBS and 100 IU/mL penicillin/streptomycin. To maintain the cultures, subpassages were performed every 2 days at a concentration of 1 × 10^4 cells/mL.
The efficacy of the compounds against Trypanosoma brucei brucei L427 wild-type (WT) bloodstream forms was assessed using a resazurin-based assay as described elsewhere. T. b. brucei L427 bloodstream forms were prepared at a cell density of 5 × 10^3 cells/mL in supplemented complete medium. Serial dilutions of the test compounds were prepared in a final volume of 100 μL, and 100 μL of the parasite suspension was added to each well containing the compound dilutions, resulting in a total volume of 200 μL per well. A dose–response curve for pentamidine was included as a quality control in each assay, and each condition was tested in duplicate. The plates were incubated for 72 h under the specified conditions for the parasite. After the incubation period, 20 μL of a 0.5 mM resazurin solution was added to each well, and the plates were incubated for an additional 4 h under the same conditions. Fluorescence was measured at an excitation wavelength of 544 nm and an emission wavelength of 590 nm using a Synergy 2 Multi-Mode Reader (Biotek, Winooski, VT, USA). The results were expressed as the percentage of parasite growth inhibition compared to the control (untreated parasites) and represented the average of at least three independent experiments.
(In general: Alamar Blue is a resazurin reagent that responds to reducing activity.)

Data set [2] has as its system THP-1-derived macrophages. The data set is described as follows: Cytotoxicity assay (MTT) on THP-1-derived macrophages. Type of data set: cell-based, Human. Particulars: cytotoxic concentration for THP1 cells. The method, then: Human leukemia cell line THP-1 (ATCC TIB202) cells were cultured in RPMI-1640 medium supplemented with 10% heat-inactivated fetal bovine serum (FBS), 2 mM L-glutamine, 100 IU/mL penicillin/streptomycin, and 20 mM HEPES. The cell line was maintained in a humidified incubator at 37 °C with 5% CO2. Subcultures were performed every 3 days in 20 mL of media at a concentration of 2 × 10^5 cells/mL in a T75 flask. All cell culture reagents were purchased from Lonza Bioscience (Morrisville, NC).
The cytotoxicity of the compounds on THP-1-derived macrophages was assessed using the colorimetric MTT assay (3-(4,5-dimethylthiazol-2-yl)-2,5-diphenyl tetrazolium bromide) as described elsewhere. THP-1 cells were suspended in RPMI complete medium at a density of 1 × 10^6 cells/mL, and 100 μL/well was seeded in a 96-well plate. The cells were differentiated into macrophages by adding 40 ng/mL of phorbol-myristate 13-acetate (PMA, Sigma, Saint Louis, MI, USA) for 24 h, followed by replacement with fresh medium for another 24 h. Subsequently, the cells were incubated with 100 μL of compounds, ranging from 100 to 12.5 μM, diluted in RPMI complete medium. Each condition was tested in triplicate. After 72 h of incubation at 37 °C with 5% CO2, the medium was removed, and 200 μL of 0.5 mg/mL MTT solution diluted in RPMI was added. The plates were incubated for an additional 4 h, after which 160 μL of the media was removed and replaced with 160 μL of 2-propanol. Absorbance was read at 570 nm using a Synergy 2 Multi-Mode Reader (Biotek, Winooski, VT, USA). Cytotoxicity was evaluated by presenting the CC50 (the concentration of the drug that reduces cell viability by 50%) interval or by determining the CC50 value through nonlinear regression analysis using GraphPad Prism version 8.1.1 for Windows (GraphPad Software, San Diego, CA, USA). Results represent the average of at least three independent experiments.

Data set [3] addresses T1, TbPTR1 (Trypanosoma brucei brucei, UniProt O76290).
T1 sequence (O76290 1-268): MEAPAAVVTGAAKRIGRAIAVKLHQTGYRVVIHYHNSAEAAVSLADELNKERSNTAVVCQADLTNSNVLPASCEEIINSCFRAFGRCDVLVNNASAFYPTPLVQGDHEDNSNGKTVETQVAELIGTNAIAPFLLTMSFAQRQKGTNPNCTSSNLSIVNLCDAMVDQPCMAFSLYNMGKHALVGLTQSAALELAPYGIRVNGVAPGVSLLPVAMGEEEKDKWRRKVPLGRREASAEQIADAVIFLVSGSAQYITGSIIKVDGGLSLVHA
The data set is described as follows: TbPTR1 kinetic direct enzyme assay (NADPH consumption). Particulars: direct method of activity measurement, duplicate. Type of data set: biochemical. Here is the method: A direct kinetic assay was carried out to measure NADPH consumption over time using a Jasco V730 double-beam spectrophotometer. The assay was conducted as reported in ref . Thawed protein was incubated in 40 mM citrate buffer (pH 3.7) at a final concentration of 30 nM, along with the endogenous substrate at 27 μM. The reaction was carried out in a Kartell semimicro disposable polystyrene plastic cuvette (Kartell LABWARE, Milan, Italy). […] The maximum DMSO concentration was 2% in the assay solution. Each compound was tested in duplicate with a control assay without the inhibitor. The experiment was conducted 3 times. The reaction was initiated by adding NADP(H) to a final concentration of 134 μM in the cuvette, and the change in absorbance (ΔOD/min) at λ = 340 nm was monitored over 180 s at 25 °C with 27 μM. Six different concentrations were analyzed and fitted to a three-parameter logistical (3PL) model. A 95% confidence interval (CI) was used to calculate the standard error for each curve fitting, and a Student’s t test was performed for each duplicate with a significance threshold of p ≤ 0.05. Data fitting and statistical analysis were carried out using the GraphPad Prism Suite (2021).

For data set [4], the system named is Trypanosoma brucei brucei L427 wild-type (WT) bloodstream forms. The arrangement: method as in PMID 30908048. To be noted: cited from earlier work; for T. brucei % cell growth inhibition: at 10 μM ref 22; for EC50: read-out: T. brucei EC50.
Data set [5] deals with T1, TbPTR1. The arrangement: method as in PMID 30908048. Particulars: cited from earlier work; for IC50: reference compounds, SD within ± 10% ref 22; for TbPTR1 % enzyme inhibition: at 50 μM ref 22.
Data set [6] deals with THP-1-derived macrophages. The arrangement: method as in PMID 30908048. Particulars: cytotoxic concentration for THP1 cells ref 22; cited from earlier work.
Data set [7] concerns L. infantum intracellular amastigotes. The arrangement: method as in PMID 30908048. Particulars: at 10 μM; intracellular amastigotes ref 22; cited from earlier work.
The target of data set [8] is T2, LmPTR1 (Leishmania major, UniProt Q01782).
T2 sequence (Q01782 1-288): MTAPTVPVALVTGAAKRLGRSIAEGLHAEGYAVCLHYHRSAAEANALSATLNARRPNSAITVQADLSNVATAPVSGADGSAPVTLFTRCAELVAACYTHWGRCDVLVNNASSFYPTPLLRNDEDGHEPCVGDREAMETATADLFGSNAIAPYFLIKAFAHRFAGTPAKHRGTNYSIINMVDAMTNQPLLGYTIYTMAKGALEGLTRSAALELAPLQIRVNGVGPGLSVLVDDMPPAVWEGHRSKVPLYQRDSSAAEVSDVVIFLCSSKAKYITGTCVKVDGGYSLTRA
The arrangement: method as in PMID 30908048. To be noted: at 50 μM ref 22; cited from earlier work.

Data set [9] deals with the molecule itself. The data set is described as follows: crystal structure; hanging-drop vapour diffusion, crystals soaked with inhibitors; space group P2(1), asymmetric unit holds a functional TbPTR1 tetramer; ternary complexes with NADP(H) and 1a, 2b, 2c, 2d or 2e.

Read-outs that look alike come from different tables or passages of the source.

As usually defined, the CC50 is the concentration giving 50% cytotoxicity. A word on the IC50: it is the concentration that gives 50% inhibition. On to “2-amino-N-(3-(trifluoromethyl)phenethyl)benzo[d]thiazole-6-carboxamide [Compound 2g]”, for which the “T. brucei % cell growth inhibition” value in data set [1] came to 31±7%. In data set [2], the CC50 is more than 100 µM. In addition, in data set [3], the IC50 came out at 7 µM.
Consider “2-amino-N-(4-(trifluoromethyl)phenethyl)benzo[d]thiazole-6-carboxamide [Compound 2f]”, for which the cytotoxic concentration (CC50) in [2] is more than 100 µM. The molecule further had an IC50 in [3] of 5.7 µM.
With `Nc1nc2ccc(SCc3ccc(Cl)c(Cl)c3)cc2s1` [III], in [4], the “T. brucei % cell growth inhibition” value is reported as 46±1%. In addition, the IC50 in [5] is 0.9 µM.
In the case of `Nc1nc2ccc(OCc3ccc(Cl)c(Cl)c3)cc2s1` [II], the “T. brucei % cell growth inhibition” value in [4] was 42±11%. In [6], the CC50 was more than 100 µM. Besides, in data set [5], the IC50 is 3.4 µM.
Consider `Nc1nc2ccc(S(=O)(=O)Cc3ccc(Cl)c(Cl)c3)cc2s1` [IV], for which the “L. infantum % cell growth inhibition” value in data set [7] is on record as 21±5%. Besides, in [4], the “T. brucei % cell growth inhibition” value is 37±11%. Moreover, the “TbPTR1 % enzyme inhibition” value in [5] is recorded as 16.7±8.4%. Moreover, in data set [8], the “LmPTR1 % enzyme inhibition” value was 26.9±1.8%.
As usually defined, the EC50 is the midpoint of the concentration-response curve. As for `Nc1nc2c(O)cc(C(=O)NCc3ccc(Cl)c(Cl)c3)cc2s1` [VII], the “L. infantum % cell growth inhibition” value in [7] is recorded as 24±15%. Moreover, the EC50 in data set [4] is 5.9 µM. The “TbPTR1 % enzyme inhibition” value in [5] is recorded as 11.8±4.6%. The “LmPTR1 % enzyme inhibition” value in data set [8] is 8.7±0.6%.
With `COc1ccc(CN(Cc2ccc(Cl)c(Cl)c2)C(=O)c2ccc3nc(N)sc3c2)cc1OC` [VI], the EC50 in [4] is 9.7 µM. Besides, the IC50 in data set [5] is 15.9 µM.
For `Nc1nc2ccc(C(=O)NCc3ccc(Cl)c(Cl)c3)cc2s1` [V], the IC50 in data set [5] was 5.4 µM.

B1: Trypanosoma brucei pteridine reductase 1 (enzyme)
chain: MEAPAAVVTGAAKRIGRAIAVKLHQTGYRVVIHYHNSAEAAVSLADELNKERSNTAVVCQADLTNSNVLPASCEEIINSCFRAFGRCDVLVNNASAFYPTPLVQGDHEDNSNGKTVETQVAELIGTNAIAPFLLTMSFAQRQKGTNPNCTSSNLSIVNLCDAMVDQPCMAFSLYNMGKHALVGLTQSAALELAPYGIRVNGVAPGVSLLPVAMGEEEKDKWRRKVPLGRREASAEQIADAVIFLVSGSAQYITGSIIKVDGGLSLVHA
modifications: Cys168 oxidized to S-oxycysteine (Csx168) in the crystal structures
notes: Pteridine reductase 1 (PTR1) of Trypanosoma brucei; Ala268 is called the C-terminus; also called TbPTR1; PTR1; source: E. coli BL21(DE3), purified (IMAC on HisTrap FF, SEC on Superdex 200)
Usually stoichiometry N stands for the number of molecules, sites or subunits per partner or assembly. Take B1: the “stoichiometry N” value in data set [9] came out at 4.
